Assay results: patent US9834544B2, “Sweet flavor modifier” (SENOMYX, INC., priority 2011, dated 2017)

Key:
[1] = target: T1, hT1R2/R3 (Homo sapiens, UniProt Q7RTX0+Q8TE23); experiment: Screening for sweet enhancers: FLIPR calcium assay in hT1R2/R3-mammalian Gal5 cells, leftward shift of sweetener EC50; assay type: cell-based; settings: for EC50 Ratio, Sucralose Enhancement / EC50 Ratio, Sucrose Enhancement: compound at 10 μM; for EC50 Ratio, Sucralose Enhancement: sweetener sucralose; for EC50 Ratio, Sucrose Enhancement: sweetener sucrose
T1 construct: expressed in transfected cells; host or cells: 'hT1R2/R3-mammalian Gal5 cells'
T1 sequence (Q8TE23 20-839): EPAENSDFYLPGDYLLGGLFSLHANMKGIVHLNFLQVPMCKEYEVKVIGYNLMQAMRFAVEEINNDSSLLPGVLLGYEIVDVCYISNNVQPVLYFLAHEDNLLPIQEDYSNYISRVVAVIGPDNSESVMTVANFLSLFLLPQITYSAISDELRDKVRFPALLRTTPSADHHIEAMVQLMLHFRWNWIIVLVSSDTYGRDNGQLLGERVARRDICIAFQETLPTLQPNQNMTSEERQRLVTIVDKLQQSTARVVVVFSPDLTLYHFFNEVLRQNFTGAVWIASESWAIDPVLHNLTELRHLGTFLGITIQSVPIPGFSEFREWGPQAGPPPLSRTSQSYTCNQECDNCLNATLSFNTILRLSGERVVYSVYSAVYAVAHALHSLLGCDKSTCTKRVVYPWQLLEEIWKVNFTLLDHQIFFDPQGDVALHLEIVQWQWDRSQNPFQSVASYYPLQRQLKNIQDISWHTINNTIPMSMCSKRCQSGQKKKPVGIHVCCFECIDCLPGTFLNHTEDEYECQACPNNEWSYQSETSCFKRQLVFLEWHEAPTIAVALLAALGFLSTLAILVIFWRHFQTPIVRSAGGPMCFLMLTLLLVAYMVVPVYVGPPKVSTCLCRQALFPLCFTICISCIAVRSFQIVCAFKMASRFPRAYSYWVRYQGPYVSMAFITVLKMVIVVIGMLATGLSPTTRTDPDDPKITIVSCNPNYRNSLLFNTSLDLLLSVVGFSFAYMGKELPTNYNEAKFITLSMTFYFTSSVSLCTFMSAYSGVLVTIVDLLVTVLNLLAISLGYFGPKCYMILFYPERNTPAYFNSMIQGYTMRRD
T1 sequence (Q7RTX0 21-852): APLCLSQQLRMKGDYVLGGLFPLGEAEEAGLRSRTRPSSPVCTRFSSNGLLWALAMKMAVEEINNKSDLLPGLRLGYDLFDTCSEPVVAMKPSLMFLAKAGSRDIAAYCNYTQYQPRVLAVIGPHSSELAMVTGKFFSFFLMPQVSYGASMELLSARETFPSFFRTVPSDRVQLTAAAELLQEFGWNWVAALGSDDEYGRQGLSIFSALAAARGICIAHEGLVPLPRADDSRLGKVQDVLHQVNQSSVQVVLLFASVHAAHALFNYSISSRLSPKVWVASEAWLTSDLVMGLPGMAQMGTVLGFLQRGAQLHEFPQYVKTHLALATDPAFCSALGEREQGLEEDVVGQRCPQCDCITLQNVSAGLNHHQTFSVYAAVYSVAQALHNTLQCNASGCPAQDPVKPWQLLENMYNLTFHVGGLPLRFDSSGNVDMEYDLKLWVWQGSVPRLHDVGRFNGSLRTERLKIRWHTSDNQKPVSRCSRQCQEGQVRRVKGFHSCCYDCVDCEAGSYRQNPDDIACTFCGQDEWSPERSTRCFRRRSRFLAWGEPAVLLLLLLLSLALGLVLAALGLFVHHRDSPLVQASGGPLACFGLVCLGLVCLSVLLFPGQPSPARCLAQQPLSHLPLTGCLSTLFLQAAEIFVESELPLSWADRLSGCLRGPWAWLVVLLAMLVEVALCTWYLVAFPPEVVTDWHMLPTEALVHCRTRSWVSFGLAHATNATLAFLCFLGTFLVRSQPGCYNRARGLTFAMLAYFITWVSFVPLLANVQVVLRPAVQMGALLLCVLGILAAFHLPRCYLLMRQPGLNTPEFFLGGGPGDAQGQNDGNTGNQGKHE
Protocol: hT1R2/R3-mammalian Gal5 cells were seeded in 384-well-clear bottom plates (Fisher) at a density of ˜32,000 cells/well and grown overnight. On the day of the experiment, hT1R2/R3-mammalian Gal5 were loaded with the calcium indicator Fluo3AM ([…]) (Invitrogen, Carlsbad, Calif.) in D-PBS (Invitrogen, Carlsbad, Calif.) using a Multidrop. Cells were incubated for 1 hour at room temperature and excess dye was washed out with D-PBS using an EMBLA cell washer (Molecular Devices, Sunnyvale, Calif.), leaving a residual volume of […]. Sweeteners and test compounds were prepared at 4× final concentration and mixed 1:1 in a 384-well Greiner plate (bringing the sweeteners and test compounds concentrations down to 2× final concentration). After 30 minutes of rest time at room temperature, Fluo3AM-loaded cell plates, and the sweetener/compound plate mixture were loaded into a Fluorometric Imaging Plate Reader (FLIPR) (Molecular Devices, Sunnyvale, Calif.). Imaging was performed using a 480 nm excitation and a 535 emission and was initiated with the acquisition of the baseline fluorescence for a period of 7 seconds. Then, the cells were stimulated on line with addition of […] stimuli/well. Subsequent images were acquired every other second for a period of 2 minutes. Raw fluorescence counts were then normalized in each well (using custom made data import software) by calculating delta F/f values (maximum fluorescent count obtained after stimulation−minimal fluorescent count obtained before stimulation/minimal fluorescent count obtained before stimulation). EC50s were determined using a non-linear regression algorithm (GraphPad PRISM, San Diego, Calif.), where the Hill slope, bottom asymptotes and top asymptotes were allow to vary. Enhancement properties of test compounds were quantified by determining the magnitude of the leftward shift in the sweeteners EC50 values (or an EC50 ratio): the value of the EC50 measured in the absence of the enhancer divided by the value of the EC50 measured in the presence of the enhancer).
The present compounds have been tested and shown sweet taste enhancing activities for sucrose, sucralose, and/or fructose as shown in Table E (EC50 ratio for sucrose at about 10 μM), Table F (EC50 ratio for sucralose at about 10 μM), and Table H (EC50 ratio for fructose at about 50 µM). […] The compounds listed in Tables E, F and H are Examples described above. For example, Compound C6 listed in Tables E and F is Example 18 described above.

| Compound | melting point [°C] | further results |
| --- | --- | --- |
| Cc1nc2cccc(OCC(C)(C)C(=O)NCC3CC3)c2c(N)c1C(=O)O [Example 14, 4-amino-5-(3-((cyclopropylmethyl)amino)-2,2-dimethyl-3-oxopropoxy)-2-methylquinoline-3-carboxylic acid] | 177 to 179 |  |
| CCCCNC(=O)C(C)(C)COc1cccc2nc(C)c(C(=O)O)c(N)c12 [Example 15, 4-amino-5-(3-(butylamino)-2,2-dimethyl-3-oxopropoxy)-2-methylquinoline-3-carboxylic acid] | 195 to 199 |  |
| Cc1nc2cccc(OCC(C)(C)NC(=O)CN3CCOCC3)c2c(N)c1C(=O)O [Example 17, 4-amino-2-methyl-5-(2-methyl-2-(2-morpholinoacetamido)propoxy)quinoline-3-carboxylic acid] | 173 to 175 |  |
| Cc1nc2cccc(OCC(C)(C)NC(=O)C(C)C)c2c(N)c1C(=O)O [Example 6, 4-amino-5-(2-isobutyramido-2-methylpropoxy)-2-methylquinoline-3-carboxylic acid] | 184 to 186 |  |
| CCC(CC)NC(=O)C(C)(C)COc1cccc2nc(C)c(C(=O)O)c(N)c12 [Example 16, 4-amino-5-(2,2-dimethyl-3-oxo-3-(pentan-3-ylamino)propoxy)-2-methyl-quinoline-3-carboxylic acid] | 172 to 174 |  |
| Cc1nc2cccc(OC3CCN(C(=O)C(C)C)CC3)c2c(N)c1C(=O)O [Example 10, 4-amino-5-((1-isobutyrylpiperidin-4-yl)oxy)-2-methylquinoline-3-carboxylic acid] | 184 to 186 |  |
| CCC(=O)N1CCC(COc2cccc3nc(C)c(C(=O)O)c(N)c23)CC1 [Example 21, 4-amino-2-methyl-5-((1-propionylpiperidin-4-yl)methoxy)quinoline-3-carboxylic acid] | 168 to 170 |  |
| Cc1nc2cccc(OCC(C)(C)NC(=O)C3CCC3)c2c(N)c1C(=O)O [Example 9, 4-amino-5-(2-(cyclobutanecarboxamido)-2-methylpropoxy)-2-methylquino-line-3-carboxylic acid] | 186 to 190 |  |
| Cc1nc2cccc(OCC(C)(C)C(=O)NCC(C)C)c2c(N)c1C(=O)O [Compound C6, 4-amino-5-(3-(isobutylamino)-2,2-dimethyl-3-oxopropoxy)-2-methylquino-line-3-carboxylic acid] | 176 to 179 | EC50 Ratio, Sucralose Enhancement [1]: 3.8; EC50 Ratio, Sucrose Enhancement [1]: 11.0 |
| Cc1nc2cccc(OCC(C)(C)NC(=O)CC(C)C)c2c(N)c1C(=O)O [Example 5, 4-amino-2-methyl-5-(2-methyl-2-(3-methylbutanamido)propoxy)quinoline-3-carboxylic acid] | 195 to 198 |  |
| Cc1nc2cccc(OCC(C)(C)NC(=O)C3CCOCC3)c2c(N)c1C(=O)O [Example 7, 4-amino-2-methyl-5-(2-methyl-2-(tetrahydro-2H-pyran-4-carboxamido)-propoxy)quinoline-3-carboxylic acid] | 170 to 173 |  |
| Cc1nc2cccc(O[C@H]3CC[C@H](NC(=O)C(C)C)CC3)c2c(N)c1C(=O)O [Example 4, 4-amino-5-(((1,4)-trans-4-isobutyramidocyclohexyl)oxy)-2-methylquinoline-3-carboxylic acid] | 183 to 185 |  |
| CNC(=O)[C@H]1CC[C@H](Oc2cccc3nc(C)c(C(=O)O)c(N)c23)CC1 [Example 22, 4-amino-2-methyl-5-(((1,4)-trans-4-(methylcarbamoyl)cyclohexyl)oxy)quinoline-3-carboxylic acid] | 195 to 198 |  |
| CCNC(=O)C(C)(C)COc1cccc2nc(C)c(C(=O)O)c(N)c12 [Example 12, 4-amino-5-(3-(ethylamino)-2,2-dimethyl-3-oxopropoxy)-2-methylquinoline-3-carboxylic acid] | 168 to 170 |  |
| Cc1nc2cccc(OCC(C)(C)C(=O)NC3CC3)c2c(N)c1C(=O)O [Example 2, 4-amino-5-(3-(cyclopropylamino)-2,2-dimethyl-3-oxopropoxy)-2-methyl-quinoline-3-carboxylic acid] | 227 to 229 |  |
| Cc1nc2cccc(OCC(C)(C)C(=O)NC3CCC3)c2c(N)c1C(=O)O [Example 3, 4-amino-5-(3-(cyclobutylamino)-2,2-dimethyl-3-oxopropoxy)-2-methylquino-line-3-carboxylic acid] | 183 to 187 |  |
| CCC(=O)NC(C)(C)COc1cccc2nc(C)c(C(=O)O)c(N)c12 [Example 8, 4-amino-2-methyl-5-(2-methyl-2-propionamidopropoxy)quinoline-3-carboxylic acid] | 189 to 193 |  |
| Cc1nc2cccc(OCC(C)(C)C(=O)NCC3CCC3)c2c(N)c1C(=O)O [Example 19, 4-amino-5-(3-((cyclobutylmethyl)amino)-2,2-dimethyl-3-oxopropoxy)-2-methylquinoline-3-carboxylic acid] | 170 to 172 |  |
| Cc1nc2cccc(OCC(C)(C)NC(=O)CC3CCOCC3)c2c(N)c1C(=O)O [Example 13, 4-amino-2-methyl-5-(2-methyl-2-(2-(tetrahydro-2H-pyran-4-yl)acetamido)-propoxy)quinoline-3-carboxylic acid] | 175 to 178 |  |
| Cc1nc2cccc(OCC(C)(C)NC(=O)CC(C)C)c2c(N)c1C(=O)O [Compound O5] |  | EC50 Ratio, Sucralose Enhancement [1]: 4.3; EC50 Ratio, Sucrose Enhancement [1]: 6.0; EC50 Ratio, Fructose Enhancement ([1]; compound at 50 μM, sweetener fructose): 2.6 |
